Experimental data reported in patent US20210255193A1, “LYSINE REACTIVE PROBES AND USES THEREOF” (The Scripps Research Institute, priority 2017, published 2021).

Experiments:
Experiment in all cases: competitive isoTOP-ABPP
Format in all cases: binding
[1] = molecular target: T1, SPAST Spastin (Homo sapiens, UniProt Q9UBP0); details: for R value (DMSO/fragment) for probe 1 labeling: Q9UBP0_K180; for R value (DMSO/fragment) for probe 1 labeling / isoTOP-ABPP reactivity ratio at lysine Q9UBP0_K180 / isoTOP-ABPP ratio (R) at liganded lysine Q9UBP0_K180: 50 uM, in vitro; for R value (DMSO/fragment) for probe 1 labeling / isoTOP-ABPP reactivity ratio at lysine Q9UBP0_K180: 231 sol; for isoTOP-ABPP ratio (R) at liganded lysine Q9UBP0_K180: sol, 231
T1 construct: endogenous in cells; host or cells: MDA-MB-231 lysate
T1 sequence (Q9UBP0 1-616): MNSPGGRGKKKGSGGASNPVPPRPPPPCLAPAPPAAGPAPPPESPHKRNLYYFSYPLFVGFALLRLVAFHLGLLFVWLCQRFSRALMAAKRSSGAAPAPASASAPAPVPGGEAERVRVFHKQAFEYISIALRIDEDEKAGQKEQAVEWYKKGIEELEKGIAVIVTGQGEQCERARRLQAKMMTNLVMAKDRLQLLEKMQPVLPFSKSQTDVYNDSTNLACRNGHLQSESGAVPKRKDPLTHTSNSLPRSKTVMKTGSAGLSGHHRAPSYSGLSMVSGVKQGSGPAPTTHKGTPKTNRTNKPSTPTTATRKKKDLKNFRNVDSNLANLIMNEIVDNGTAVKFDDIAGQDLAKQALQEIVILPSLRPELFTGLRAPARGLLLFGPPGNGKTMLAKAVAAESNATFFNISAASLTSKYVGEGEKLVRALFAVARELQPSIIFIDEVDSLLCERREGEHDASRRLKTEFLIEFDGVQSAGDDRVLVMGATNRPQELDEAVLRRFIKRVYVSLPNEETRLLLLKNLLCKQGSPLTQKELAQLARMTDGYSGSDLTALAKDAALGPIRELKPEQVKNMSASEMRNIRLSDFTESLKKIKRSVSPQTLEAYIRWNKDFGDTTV
Method in brief: (§1)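 Lysine engagement is reported as R, the MS1 peak-area ratio of heavy-tagged DMSO to light-tagged compound samples. Final fragment concentrations were 50 μM for activated esters and 100 μM for guanidinylating agents; STP-alkyne probe 0.1 mM, 1 h.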

[2] = molecular target: T2, LRRC20 Leucine-rich repeat-containing protein 20 (Homo sapiens, UniProt Q8TCA0); details: for R value (DMSO/fragment) for probe 1 labeling: Q8TCA0_K43; for R value (DMSO/fragment) for probe 1 labeling / isoTOP-ABPP reactivity ratio at lysine Q8TCA0_K43 / isoTOP-ABPP ratio (R) at liganded lysine Q8TCA0_K43: 50 uM, in vitro; for R value (DMSO/fragment) for probe 1 labeling / isoTOP-ABPP reactivity ratio at lysine Q8TCA0_K43: 231 sol; for isoTOP-ABPP ratio (R) at liganded lysine Q8TCA0_K43: sol, 231
T2 construct: isoTOP-ABPP experiments performed in cell lysates (in vitro); endogenous in cells; host or cells: soluble proteome of human cancer cell lines (MDA-MB-231; Ramos and Jurkat also prepared)
T2 sequence (Q8TCA0 1-184): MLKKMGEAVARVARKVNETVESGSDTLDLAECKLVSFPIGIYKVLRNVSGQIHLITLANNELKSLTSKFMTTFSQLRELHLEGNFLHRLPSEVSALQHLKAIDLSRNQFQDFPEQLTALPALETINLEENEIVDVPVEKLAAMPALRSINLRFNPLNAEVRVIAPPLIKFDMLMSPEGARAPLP
Method in brief: as §1

[3] = molecular target: T3, SMPD1 Sphingomyelin phosphodiesterase (Homo sapiens, UniProt P17405); details: for isoTOP-ABPP ratio (R) at liganded lysine P17405_K118: sol, 231
T3 construct: isoTOP-ABPP experiments performed in cell lysates (in vitro); endogenous in cells; host or cells: soluble proteome of human cancer cell lines (MDA-MB-231; Ramos and Jurkat also prepared)
T3 sequence (P17405 47-631): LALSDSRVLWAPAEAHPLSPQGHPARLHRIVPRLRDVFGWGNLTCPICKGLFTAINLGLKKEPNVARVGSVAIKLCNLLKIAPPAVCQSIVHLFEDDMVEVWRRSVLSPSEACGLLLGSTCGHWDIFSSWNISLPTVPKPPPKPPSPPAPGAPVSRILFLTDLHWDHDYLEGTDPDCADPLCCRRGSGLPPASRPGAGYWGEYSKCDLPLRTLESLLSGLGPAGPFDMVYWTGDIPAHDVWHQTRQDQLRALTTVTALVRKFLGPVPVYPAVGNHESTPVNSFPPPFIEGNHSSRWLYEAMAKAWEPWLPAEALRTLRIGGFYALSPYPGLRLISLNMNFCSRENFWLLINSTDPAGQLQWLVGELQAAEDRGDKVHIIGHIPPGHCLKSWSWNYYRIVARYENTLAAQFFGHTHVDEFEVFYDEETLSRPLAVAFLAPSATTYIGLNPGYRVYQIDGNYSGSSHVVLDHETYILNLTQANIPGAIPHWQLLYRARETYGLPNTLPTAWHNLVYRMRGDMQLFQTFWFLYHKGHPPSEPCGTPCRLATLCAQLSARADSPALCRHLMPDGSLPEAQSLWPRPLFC
Method in brief: as §1

O=C(CCc1cn(-c2ccccc2)nc1-c1ccccc1)Oc1c(F)c(F)c(F)c(F)c1F [fragment 19, Pentafluorophenyl 3-(1,3-diphenyl-1H-pyrazol-4-yl)propanoate]
R value (DMSO/fragment) for probe 1 labeling [1]: 1.3
R value (DMSO/fragment) for probe 1 labeling [2]: 1.1

O=C(Oc1c(F)c(F)c(F)c(F)c1F)C(c1ccccc1)c1ccccc1 [fragment 20, Pentafluorophenyl 2,2-diphenylacetate]
R value (DMSO/fragment) for probe 1 labeling [1]: 1.2
R value (DMSO/fragment) for probe 1 labeling [2]: 0.7
R value (DMSO/fragment) for probe 1 labeling ([3]; P17405_K118, 50 uM, 231 sol, in vitro): 1.4

O=C(Oc1c(F)c(F)c(F)c(F)c1F)c1cc(C(F)(F)F)cc(C(F)(F)F)c1 [fragment 21, Pentafluorophenyl 3,5-bis(trifluoromethyl)benzoate]
R value (DMSO/fragment) for probe 1 labeling [1]: 1.8
R value (DMSO/fragment) for probe 1 labeling [2]: 1.0

Cn1cc(CC(=O)Oc2c(F)c(F)c(F)c(F)c2F)c2ccccc21 [fragment 22, Pentafluorophenyl 2-(1-methyl-1H-indol-3-yl)acetate]
R value (DMSO/fragment) for probe 1 labeling [1]: 1.0
R value (DMSO/fragment) for probe 1 labeling [2]: 0.9

O=C(Oc1c(F)c(F)c(F)c(F)c1F)C1CCN(C(=O)OCc2ccccc2)CC1 [fragment 24, 1-Benzyl 4-(pentafluorophenyl) piperidine-1,4-dicarboxylate]
isoTOP-ABPP reactivity ratio at lysine Q9UBP0_K180 [1]: 1.1

O=C(Oc1c(F)c(F)c(F)c(F)c1F)c1ccc2ccccc2n1 [fragment 25, Pentafluorophenyl quinoline-2-carboxylate]
isoTOP-ABPP reactivity ratio at lysine Q9UBP0_K180 [1]: 1.2

O=C(CCc1coc2cc(F)ccc2c1=O)Oc1c(F)c(F)c(F)c(F)c1F [fragment 26, Pentafluorophenyl 3-(7-fluoro-4-oxo-4H-chromen-3-yl)propanoate]
isoTOP-ABPP reactivity ratio at lysine Q8TCA0_K43 [2]: 0.8

O=C(CN1C(=O)c2ccccc2C1=O)Oc1c(F)c(F)c(F)c(F)c1F [fragment 27, Pentafluorophenyl 2-(1,3-dioxoisoindolin-2-yl)acetate]
isoTOP-ABPP reactivity ratio at lysine Q9UBP0_K180 [1]: 2.1

CCn1cc(C(=O)Oc2c(F)c(F)c(F)c(F)c2F)c(=O)c2ccc(C)nc21 [fragment 28, Pentafluorophenyl 1-ethyl-7-methyl-4-oxo-1,4-dihydro-1,8-naphthyridine-3-carboxylate]
isoTOP-ABPP reactivity ratio at lysine Q9UBP0_K180 [1]: 1.0

O=C(CCc1cn(-c2ccccc2)nc1-c1ccccc1)Oc1ccc([N+](=O)[O-])cc1[N+](=O)[O-] [fragment 29, 2,4-Dinitrophenyl 3-(1,3-diphenyl-1H-pyrazol-4-yl)propanoate]
isoTOP-ABPP reactivity ratio at lysine Q9UBP0_K180 [1]: 1.2
isoTOP-ABPP reactivity ratio at lysine Q8TCA0_K43 [2]: 1.3
isoTOP-ABPP reactivity ratio at lysine P17405_K118 ([3]; 50 uM, 231 sol, in vitro): 2.5

O=C(Oc1ccc([N+](=O)[O-])cc1[N+](=O)[O-])C(c1ccccc1)c1ccccc1 [fragment 30, 2,4-Dinitrophenyl 2,2-diphenylacetate]
isoTOP-ABPP reactivity ratio at lysine Q8TCA0_K43 [2]: 1.5

O=C(Oc1ccc([N+](=O)[O-])cc1[N+](=O)[O-])c1cc(C(F)(F)F)cc(C(F)(F)F)c1 [fragment 31, 2,4-Dinitrophenyl 3,5-bis(trifluoromethyl)benzoate]
isoTOP-ABPP reactivity ratio at lysine Q9UBP0_K180 [1]: 1.1

Cn1cc(CC(=O)Oc2ccc([N+](=O)[O-])cc2[N+](=O)[O-])c2ccccc21 [fragment 32, 2,4-Dinitrophenyl 2-(1-methyl-1H-indol-3-yl)acetate]
isoTOP-ABPP reactivity ratio at lysine Q9UBP0_K180 [1]: 2.5
isoTOP-ABPP reactivity ratio at lysine Q8TCA0_K43 [2]: 1.6

COc1cc(CCC(=O)Oc2ccc([N+](=O)[O-])cc2[N+](=O)[O-])cc(OC)c1OC [fragment 33, 2,4-Dinitrophenyl 3-(3,4,5-trimethoxyphenyl)propanoate]
isoTOP-ABPP reactivity ratio at lysine Q9UBP0_K180 [1]: 0.7

O=C(Oc1ccc([N+](=O)[O-])cc1[N+](=O)[O-])c1ccc2ccccc2n1 [fragment 35, 2,4-Dinitrophenyl quinoline-2-carboxylate]
isoTOP-ABPP ratio (R) at liganded lysine Q8TCA0_K43 [2]: 1.0
isoTOP-ABPP ratio (R) at liganded lysine P17405_K118 ([3]; 50 uM, in vitro): 1.4

O=C(CCc1coc2cc(F)ccc2c1=O)Oc1ccc([N+](=O)[O-])cc1[N+](=O)[O-] [fragment 36, 2,4-Dinitrophenyl 3-(7-fluoro-4-oxo-4H-chromen-3-yl)propanoate]
isoTOP-ABPP ratio (R) at liganded lysine Q8TCA0_K43 [2]: 1.1

O=C(Oc1ccc([N+](=O)[O-])cc1[N+](=O)[O-])c1ccc(-c2ccccc2)cc1 [fragment 37, 2,4-Dinitrophenyl [1,1′-biphenyl]-4-carboxylate]
isoTOP-ABPP ratio (R) at liganded lysine Q9UBP0_K180 [1]: 1.1

O=C(CC12CC3CC(CC(C3)C1)C2)Oc1ccc([N+](=O)[O-])cc1[N+](=O)[O-] [fragment 38, 2,4-Dinitrophenyl 2-(adamantan-1-yl)acetate]
isoTOP-ABPP ratio (R) at liganded lysine Q9UBP0_K180 [1]: 2.1
isoTOP-ABPP ratio (R) at liganded lysine P17405_K118 ([3]; 50 uM, in vitro): 1.2

O=C(Oc1ccc([N+](=O)[O-])cc1[N+](=O)[O-])c1ccc(Oc2ccccc2)cc1 [fragment 39, 2,4-Dinitrophenyl 4-phenoxybenzoate]
isoTOP-ABPP ratio (R) at liganded lysine Q9UBP0_K180 [1]: 1.4
isoTOP-ABPP ratio (R) at liganded lysine Q8TCA0_K43 [2]: 0.9
isoTOP-ABPP ratio (R) at liganded lysine P17405_K118 ([3]; 50 uM, in vitro): 0.8

CC(C)(C)OC(=O)NCCCC(=O)Oc1ccc([N+](=O)[O-])cc1[N+](=O)[O-] [fragment 41, 2,4-Dinitrophenyl 4-((tert-butoxycarbonyl)amino)butanoate]
isoTOP-ABPP ratio (R) at liganded lysine Q9UBP0_K180 [1]: 1.4
isoTOP-ABPP ratio (R) at liganded lysine P17405_K118 ([3]; 50 uM, in vitro): 1.5

O=C(Oc1ccc([N+](=O)[O-])cc1[N+](=O)[O-])C(c1ccccc1)(c1ccccc1)c1ccccc1 [fragment 42, 2,4-Dinitrophenyl 2,2,2-triphenylacetate]
isoTOP-ABPP ratio (R) at liganded lysine Q9UBP0_K180 [1]: 1.0
isoTOP-ABPP ratio (R) at liganded lysine Q8TCA0_K43 [2]: 1.3

CC(=O)Oc1ccc([N+](=O)[O-])cc1[N+](=O)[O-] [fragment 43, 2,4-Dinitrophenyl acetate]
isoTOP-ABPP ratio (R) at liganded lysine Q9UBP0_K180 [1]: 2.7
isoTOP-ABPP ratio (R) at liganded lysine Q8TCA0_K43 [2]: 1.2

N#Cc1ccc(C(=O)Oc2ccc([N+](=O)[O-])cc2[N+](=O)[O-])cc1 [fragment 44, 2,4-Dinitrophenyl 4-cyanobenzoate]
isoTOP-ABPP ratio, lysine Q8TCA0_K43 ([2]; 50 uM_231_sol_in vitro): 1.1
isoTOP-ABPP ratio, lysine P17405_K118 ([3]; 50 uM_231_sol_in vitro): 0.8

O=C(CCc1ccc2c(c1)OCO2)Oc1ccc([N+](=O)[O-])cc1[N+](=O)[O-] [fragment 45, 2,4-Dinitrophenyl 3-(benzo[d][1,3]dioxol-5-yl)propanoate]
isoTOP-ABPP ratio, lysine Q9UBP0_K180 ([1]; 50 uM_231_sol_in vitro): 1.7
isoTOP-ABPP ratio, lysine Q8TCA0_K43 ([2]; 50 uM_231_sol_in vitro): 0.8
isoTOP-ABPP ratio, lysine P17405_K118 ([3]; 50 uM_231_sol_in vitro): 1.1

O=C(ON1C(=O)CCC1=O)c1cc(C(F)(F)F)cc(C(F)(F)F)c1 [fragment 46, 3,5-Bis(trifluoromethyl)benzoic acid NHS ester]
isoTOP-ABPP ratio, lysine Q9UBP0_K180 ([1]; 50 uM_231_sol_in vitro): 4.4
isoTOP-ABPP ratio, lysine Q8TCA0_K43 ([2]; 50 uM_231_sol_in vitro): 1.3
isoTOP-ABPP ratio, lysine P17405_K118 ([3]; 50 uM_231_sol_in vitro): 0.7

COC(=O)NC(=NC(=O)OCC1c2ccccc2-c2ccccc21)n1cccn1 [fragment 49, N-Methoxycarbonyl-N′-9-fluorenylmethoxycarbonyl-pyrazole-1-carboxamidine]
isoTOP-ABPP ratio, lysine Q8TCA0_K43 ([2]; 100 uM_231_sol_in vitro): 14.0
isoTOP-ABPP ratio, lysine P17405_K118 ([3]; 100 uM_231_sol_in vitro): 8.4

CC(C)(C)OC(=O)N=C(NC(=O)OC(C)(C)C)n1cccn1 [fragment 50, reference compound]
isoTOP-ABPP ratio, lysine Q9UBP0_K180 ([1]; 100 uM_231_sol_in vitro): 2.0
isoTOP-ABPP ratio, lysine Q8TCA0_K43 ([2]; 100 uM_231_sol_in vitro): 1.3
isoTOP-ABPP ratio, lysine P17405_K118 ([3]; 100 uM_231_sol_in vitro): 1.3

NC(=O)c1cc(C(F)(F)F)cc(C(F)(F)F)c1 [fragment 51, reference compound]
isoTOP-ABPP ratio, lysine P17405_K118 ([3]; 50 uM_231_sol_in vitro): 0.9
